Measurements as given in patent US10722505B2, “Substituted 2,4 diamino-quinoline as new anticancer agents” (GENOSCIENCE PHARMA, priority 2014, dated 2020).
Structures can show the parent of a compound that is named as a salt.

How the values were obtained:
KG-1 cell line = experiment: CellTiter-Glo growth inhibition assay, KG-1; type: cell-based; conditions: Homo sapiens; KG-1, acute myelogenous leukemia, 72 h
Protocol: (§1) All cell lines were maintained in medium containing 1% penicillin-streptomycin (Dutscher, P06-07100) and 10% Fetal Bovine Serum (Gibco, W3387L) except 20% for KG-1 cell line and PBMC, and cultured at 37° C. with 5% CO2.
KG-1 and MV4-11 cell line were maintained in Iscove's modified Dulbecco's medium (Dutscher, L0190).
(§2) Cell viability was measured using the CellTiter-Glo® luminescent cell viability assay as described by the manufacturer (Promega, Ref G7571) using an Infinite F200Pro luminometer (Tecan). Briefly, for adherent cells, cells were plated onto 96-well plates (white with clear bottom) in 90 μL of media per well and were allowed to grow overnight before the assay. For cells growing in suspension, cells were plated onto 96-well plates immediately before the assay.
(§3) Compounds were added at different concentrations to each well, and cell cultures were incubated for 72 h. Vehicle (H2O) was used as a control, and all compounds were tested in a constant percentage of H2O. After addition of 100 μL of CellTiter-Glo®, luminescence was measured using an Infinite F200Pro (Tecan). EC50 values were determined as the dose of compound required to reduce luminescent values to 50% of the signal obtained for untreated cell cultures. The experimental data were analyzed using a computer program, Graphpad Prism v5 (GraphPad Software, Inc. La Jolla, Calif.). […]

[1] = test system: LI0801 HCC patient derived cells; experiment: CellTiter-Glo growth inhibition, HCC patient-derived cells LI0801; type: cell-based, human; conditions: Homo sapiens; LI0801, 72 hours
Protocol: (§4) The patient derived Hepatocellular Carcinoma (HCC) cells were maintained in medium respectively described in table 15 containing 1% penicillin-streptomycin (Life Technologies, 15070-063), with a supplements for primary cell culture (PCS) containing hydrocortisone (50 nM), Epidermal Growth Factor (20 ng/ml), β-fibroblast Growth Factor (10 ng/ml), Heparin (2 μg/ml) ITS liquid media supplement (1×) and non-essential amino acid (NEAA, 0.01 mM, 1×). The primary cell were cultured in a humidified atmosphere (95% relative humidity) with 5% CO2 at 37° C.
(§5) The cell growth inhibition assay was performed as described previously in example 5 using the CellTiter-Glo® luminescent cell viability assay as described by the manufacturer (Promega, Ref G7571). The number of cells seeded per well (in 96-Well Flat Clear Bottom Black Polystyrene TC-Treated Microplates, Cat #3340, Corning®) is described in the table 16. A backseal black sticker (Cat #6005189, Perkin Elmer) was placed to the bottom of each plate before recording CellTiter-Glo® luminescence.
(§6) The experimental data are analyzed using a computer program, Graphpad Prism V 5.0 (GraphPad Software, Inc. La Jolla, Calif.) and EC50 values were determined as the dose of compound required to reduce absorbance values to 50% of the signal obtained for vehicle treated cell cultures and were a mean of at least three independent experiments.

MRC-5 cell line = experiment: CellTiter-Glo growth inhibition assay, MRC-5; type: cell-based; conditions: MRC5; MRC-5, human fetal lung fibroblast, 72 h
Protocol: as §1
MRC-5 cell line was maintained in MEM (Dutscher, L0416).
as §2
Compounds were added at different concentrations to each well, and cell cultures were incubated for 72 h. Vehicle (H2O) was used as a control, and all compounds were tested in a constant percentage of H2O. After addition of 100 μL of CellTiter-Glo®, luminescence was measured using an Infinite F200Pro (Tecan). EC50 values were determined as the dose of compound required to reduce luminescent values to 50% of the signal obtained for untreated cell cultures. The experimental data were analyzed using a computer program, Graphpad Prism v5 (GraphPad Software, Inc. La Jolla, Calif.).
All experiments were at least done in duplicate and repeated two independent times.

[2] = test system: CPP36 liver metastatic CRC patient-derived cells; experiment: CellTiter-Glo growth inhibition, liver metastatic CRC patient-derived cells CPP36; type: cell-based; conditions: Homo sapiens; CPP36, 72 h
From the text: Patient derived liver metastasis cells (CPP19, 30, 36 and CPP45—see table 1 for clinical descriptions) were maintained in complete DMEM (Gibco) with 10% FBS. Cells were obtained from biopsies provided by CHU-Caremeau (Nimes, France) within an approved protocol. Signed informed consents were obtained from patients prior to samples acquisition in accordance with all ethical and legal aspects. Tumors were washed, minced into fragments (<2 mm^3) and digested with liberase H (0.26 U/mL, Roche) resuspended in Accumax (Sigma-Aldrich). After 2 hours at 37° C., cell suspension was filtered through a […] to obtain a single cell suspension and plated in DMEM medium, supplemented with FBS, glutamine, antibiotics and non-essential aminoacids. When a monolayer of patient-derived tumor cells was formed, cells were detached using trypsin/EDTA and resuspended in DMEM with 10% FBS (for adherent cells) or defined M11 media (for sphere formation). Cells were cultured in a humidified atmosphere at 37° C. and 5% CO2.
Cells were plated at 10^4 cells per well in P96 well plates in DMEM with 10% FBS. After 24 hours, cells were treated with compound 2-3 and cell viability was assessed 72 h post-treatment by CellTiter-Glo® Luminescent Cell Viability Assay (Promega). EC50 were calculated using GraphPad Prism Software v6 (Graphpad Software, Inc La Jolla, Calif.). […]

MDA-MB-231 cell line = experiment: CellTiter-Glo growth inhibition assay, MDA-MB-231; type: cell-based; conditions: Homo sapiens; MDA-MB-231, breast adenocarcinoma, 72 h
Protocol: as §1
(§7) HepG2, Huh7, HCT-116, MDA-MB-231 and A375 cell lines were cultured in Dulbecco's modified Eagle's medium (Dutscher, L0103).
as §2, §3

ARPE-19 cell line = experiment: CellTiter-Glo growth inhibition assay, ARPE-19; type: cell-based; conditions: ARPE-19, human retinal pigmented epithelium, 72 h
Protocol: as §1
ARPE-19 cell line was cultured in DMEM:F12 medium (Dutscher, L0093).
as §2, §3

[3] = test system: LI0752 HCC patient derived cells; experiment: CellTiter-Glo growth inhibition, HCC patient-derived cells LI0752; type: cell-based, human; conditions: Homo sapiens; LI0752, 72 hours
Protocol: as §4, §5, §6

HepG2 cell line = experiment: CellTiter-Glo growth inhibition assay, HepG2; type: cell-based; conditions: Homo sapiens; HepG2, hepatocellular carcinoma, 72 h
Protocol: as §1, §7, §2, §3

EC50 [1]: 2100 nM | EC50 (MDA-MB-231 cell line): 2000 nM | EC50 [3]: 500 nM | EC50 (HepG2 cell line): 900 nM
Structure (SMILES): CC(C)(C)NC1CCN(c2cc(NCc3ccc(Cl)cc3)nc3ccccc23)CC1 [Compound 2-3, 2-(4-chlorobenzylamino)-4-(4-tert-butylaminopiperidin-1-yl)-quinoline hydrochloride salt]
EC50 (KG-1 cell line): 5.1 µM | EC50 (MRC-5 cell line): ~3.4 µM | EC50 [2]: 1450 nM | EC50 (ARPE-19 cell line): ~6.9 µM
